Results: patent publication US4906612A (priority 1988, dated 1990)
Converted amounts (≈) assume the structure as drawn. Where two headings read alike, the source gives them in different places.

How the values were obtained:
[1] = Growth promoting effect on chicks, 20 ppm in feed for 10 days (Table 2); assay type: in vivo; details: for Body weight gain, mean value ± standard error: chicks 8 to 18 days of age, 20 ppm in feed × 10 days; for Feed efficiency: chicks, no antibiotic group 1.70; for Body weight gain index: no antibiotic group = 100.0
Experimental: Growth promoting effect of PA-42867-A on chicks (8 days of age, Abaeker species) was determined using a known antibiotic, Thiopeptin, as a control. PA-42867-A and Thiopeptin were added to an antibiotic-free feed mash (crude protein content (CP): 18%) at a concentration of 20 ppm, and the chicks were raised for 10 days with the resulting feed according to the battery method. Specifically describing the method of experiment, newly hatched chicks were fed until 8 days of age with a feed ration of 23% CP by the flat feeding method, at which time the chicks were divided into three groups each containing 25-26 chicks (males and females, 12-13 chicks each) so that the average weights of the chicks in all groups were nearly the same. PA-42867-A group received 20 ppm of the antibiotic a day for 10 days, Thiopeptin group received 20 ppm for 10 days, and the control group received antibiotic-free feed of 18% CP for 10 days. The above feeding was conducted after dividing the chicks in each of these groups into sub-groups of 6-7 chicks and putting each sub-group in a cage (435×600×410 mm). The feeding was conducted for 10 days (until 18 days of age) at an environmental temperature of 26°±2°C. The effectiveness of the drug was evaluated based on the body weight gain and the feed efficiency observed during the 10 days period of the experiment.

Cl. perfringens = assay type: cell-based, Clostridium perfringens; details: GAM agar, 24 hours at 37° C.
[2] = Growth promoting effect on chicks, 20 ppm in feed for 13 days (Table 3); assay type: in vivo; details: for Feed efficiency, 10 days / Feed efficiency, 13 days / Body weight gain ± standard error, 13 days / Body weight gain ± standard error, 10 days: 20 ppm in feed; for Feed efficiency, 10 days / Body weight gain comparative index, 10 days: 10th day; for Feed efficiency, 10 days: no antibiotic group 1.69; for Feed efficiency, 13 days / Body weight gain comparative index, 13 days: 13th day; for Feed efficiency, 13 days: no antibiotic group 1.76; for Body weight gain ± standard error, 13 days: chicks 8-21 days of age, measured on the 13th day; for Body weight gain ± standard error, 10 days: chicks from 8 days of age, measured on the 10th day; for Body weight gain comparative index, 10 days / Body weight gain comparative index, 13 days: weight gain of the control group regarded as 100
Experimental: In the same manner, another growth promoting tests were conducted on des-(4-epi-vancosaminyl)PA-42867-A and des-(4-epi-vancosaminyl-0-glucosyl)PA-42867-A by giving 20 ppm of the test drug to chicks of 8-21 days of age for 13 days, using Thiopeptin as a control.
The newly hatched chicks were fed until eight days of age with a feed mash (crude protein content (CP):23%) without addition of any antibiotic by means of the flat feeding. Then, the chicks were divided into four groups each containing 24 chicks (males and females, 12 each). Each group was placed in four cages after dividing into four unisexual sub-groups, each consisting of 6-7 chicks, and raised for 13 days with an animal feed of CP 18% with or without antibiotics. Thus, each of four groups received 20 ppm of des-(4-epi-vancosaminyl)PA-42867-A, 20 ppm of des(4-epi-vancosaminyl-0-glucosyl)PA-42867-A, 20 ppm of Thiopeptin, and no antibiotic, respectively.
Body weight gain and feed efficiency were measured on the 10th and the 13th day.

[3] = LD50 when intravenously injected in male mice; assay type: in vivo
Excerpt: The growth-promoting agent of the present invention not only promotes the growth of animals, but also improves feed utilization efficiency. The agent is also effective for the treatment of bacterial diseases.

Compound | Feed efficiency compared with the group raised with antibiotic-free feed (in words) ([1]; 20 ppm × 10 days) | Body weight gain, mean value ± standard error [1] [g] | MIC (Cl. perfringens; strain 3C-01, origin chicken) [µg/mL] | MIC (Cl. perfringens; strain 6B-10, origin cow) [µg/mL] | MIC (Cl. perfringens; strain 9C-02, origin chicken) [µg/mL] | MIC (Cl. perfringens; strain 02441, origin chicken) [µg/mL] | MIC (Cl. perfringens; strain CW-1970, origin cow) [µg/mL] | MIC (Cl. perfringens; strain FC 2208/75, origin cow) [µg/mL] | MIC (Cl. perfringens; strain NCTC-8239, origin cow) [µg/mL] | MIC (Cl. perfringens; strain NCTC-8798, origin cow) [µg/mL] | MIC (Cl. perfringens; strain NCTC-10239, origin cow) [µg/mL] | MIC (Cl. perfringens; strain S-79, origin cow) [µg/mL] | MIC (Cl. perfringens; strain SP07, origin chicken) [µg/mL] | Feed efficiency, 10 days [2] | Feed efficiency, 13 days [2] | Body weight gain ± standard error, 13 days [2] [g] | Body weight gain ± standard error, 10 days [2] [g] | Body weight gain comparative index, 10 days [2] | Body weight gain comparative index, 13 days [2] | LD50 [3] [mg/kg] | also measured
CNC(CC(C)C)C(=O)NC1C(=O)NC(CC(N)=O)C(=O)NC2C(=O)NC3C(=O)NC(C(=O)NC(C(=O)O)c4cc(O)cc(O)c4-c4cc3ccc4O)C(OC3CC(C)(N)C(O)C(C)O3)c3ccc(c(Cl)c3)Oc3cc2cc(c3OC2OC(CO)C(O)C(O)C2OC2CC(C)(N)C(O)C(C)O2)Oc2ccc(cc2)C1O (stereo not drawn) [Compound 1, PA-42867-A] | better results in feed efficiency | 332.0 ± 6.71 | 0.39 (≈ 0.25 µM) | 0.2 (≈ 0.128 µM) | 0.2 (≈ 0.128 µM) | 0.39 (≈ 0.25 µM) | 0.39 (≈ 0.25 µM) | 0.39 (≈ 0.25 µM) | 0.39 (≈ 0.25 µM) | 0.39 (≈ 0.25 µM) | 0.39 (≈ 0.25 µM) | 0.39 (≈ 0.25 µM) | 0.39 (≈ 0.25 µM) | 1.54 | 1.66 | 442.6 ± 7.8 | 328.9 ± 6.3 | 105.4 | 103.9 | 1955 | Body weight gain compared with the no-antibiotic control group and the Thiopeptin group (in words) ([1]; 20 ppm × 10 days, p<0.01): significantly high body weight gain; Feed efficiency ([1]; 20 ppm × 10 days): 1.53; Body weight gain index ([1]; 20 ppm × 10 days): 110.0
CNC(CC(C)C)C(=O)NC1C(=O)NC(CC(N)=O)C(=O)NC2C(=O)NC3C(=O)NC(C(=O)NC(C(=O)O)c4cc(O)cc(O)c4-c4cc3ccc4O)C(OC3CC(C)(N)C(O)C(C)O3)c3ccc(c(Cl)c3)Oc3cc2cc(c3OC2OC(CO)C(O)C(O)C2O)Oc2ccc(cc2)C1O (stereo not drawn) [Compound 2, des-(4-epi-vancosaminyl) PA-42867-A] |  |  | 1.56 (≈ 1.1 µM) | 1.56 (≈ 1.1 µM) | 1.56 (≈ 1.1 µM) | 1.56 (≈ 1.1 µM) | 1.56 (≈ 1.1 µM) | 1.56 (≈ 1.1 µM) | 1.56 (≈ 1.1 µM) | 1.56 (≈ 1.1 µM) | 1.56 (≈ 1.1 µM) | 0.78 (≈ 0.551 µM) | 1.56 (≈ 1.1 µM) | 1.62 | 1.66 | 447.4 ± 11.5 | 324.6 ± 8.3 | 104.0 | 105.0 | > 3000 | 
CNC(CC(C)C)C(=O)NC1C(=O)NC(CC(N)=O)C(=O)NC2C(=O)NC3C(=O)NC(C(=O)NC(C(=O)O)c4cc(O)cc(O)c4-c4cc3ccc4O)C(OC3CC(C)(N)C(O)C(C)O3)c3ccc(c(Cl)c3)Oc3cc2cc(c3O)Oc2ccc(cc2)C1O (stereo not drawn) [Compound 3, des-(4-epi-vancosaminyl-0-glucosyl)PA-42867-A] |  |  | 0.78 (≈ 0.623 µM) | 0.78 (≈ 0.623 µM) | 0.78 (≈ 0.623 µM) | 0.78 (≈ 0.623 µM) | 0.78 (≈ 0.623 µM) | 0.78 (≈ 0.623 µM) | 0.78 (≈ 0.623 µM) | 0.78 (≈ 0.623 µM) | 0.78 (≈ 0.623 µM) | 0.39 (≈ 0.311 µM) | 0.78 (≈ 0.623 µM) |  |  |  |  |  |  | 205 | 
Thiopeptin [reference compound] | better results in feed efficiency | 313.7 ± 8.80 |  |  |  |  |  |  |  |  |  |  |  | 1.61 | 1.70 | 445.5 ± 11.1 | 319.5 ± 7.5 | 102.4 | 104.6 |  | Feed efficiency ([1]; 20 ppm × 10 days): 1.58; Body weight gain index ([1]; 20 ppm × 10 days): 103.9
